Values joined by “and” are separate entries in the source; they are usually repeats but may differ in a detail not shown here. Equal entries are not always repeated. Blank lines part the entries; values can stand above or below the compound they belong to.
Legend:
[1] = target: PIK3CA (human) (UniProt P42336); assay: Assessment of PIK3CA Kinase Activity
[2] = target: PIK3CG (human) (UniProt P48736); assay: Assessment of PIK3CG Kinase Activity
[3] = target: PIK3CD (Human) (UniProt O00329); assay: Inhibition of PIK3CD Kinase Activity
Sequence of PIK3CD (Human) (O00329 whole entry, looked up): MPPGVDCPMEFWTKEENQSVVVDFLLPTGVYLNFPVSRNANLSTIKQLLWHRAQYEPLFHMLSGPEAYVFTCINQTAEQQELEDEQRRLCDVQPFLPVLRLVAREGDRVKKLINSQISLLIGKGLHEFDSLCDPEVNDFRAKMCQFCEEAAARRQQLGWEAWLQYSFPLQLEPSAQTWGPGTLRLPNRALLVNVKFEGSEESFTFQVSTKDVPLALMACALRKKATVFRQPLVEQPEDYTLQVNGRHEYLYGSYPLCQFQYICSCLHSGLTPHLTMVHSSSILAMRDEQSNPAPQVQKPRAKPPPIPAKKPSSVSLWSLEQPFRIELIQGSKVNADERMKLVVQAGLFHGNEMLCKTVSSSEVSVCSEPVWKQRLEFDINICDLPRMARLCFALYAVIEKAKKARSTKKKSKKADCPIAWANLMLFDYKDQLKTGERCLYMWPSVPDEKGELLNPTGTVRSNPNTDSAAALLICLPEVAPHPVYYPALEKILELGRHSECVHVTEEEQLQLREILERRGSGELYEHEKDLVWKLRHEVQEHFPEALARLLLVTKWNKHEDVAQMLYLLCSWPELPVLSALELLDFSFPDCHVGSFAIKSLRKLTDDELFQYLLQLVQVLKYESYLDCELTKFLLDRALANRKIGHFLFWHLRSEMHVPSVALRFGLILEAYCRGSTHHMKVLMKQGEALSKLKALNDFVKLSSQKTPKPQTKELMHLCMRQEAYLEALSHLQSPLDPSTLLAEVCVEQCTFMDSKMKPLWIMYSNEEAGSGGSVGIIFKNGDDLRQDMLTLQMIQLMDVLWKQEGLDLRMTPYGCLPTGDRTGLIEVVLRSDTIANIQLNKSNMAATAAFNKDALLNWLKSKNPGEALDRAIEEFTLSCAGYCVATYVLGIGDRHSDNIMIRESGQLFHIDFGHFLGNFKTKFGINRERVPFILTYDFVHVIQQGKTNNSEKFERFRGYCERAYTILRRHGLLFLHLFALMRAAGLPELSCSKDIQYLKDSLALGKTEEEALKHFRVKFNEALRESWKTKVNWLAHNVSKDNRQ

[4] = target: CDK2 (human) (UniProt P24941); assay: Enzyme Assay
[5] = target: CDK2 (human) (UniProt P24941); assay: Cell-Based Assay
[6] = target: PIK3CD (Human) (UniProt O00329); assay: Enzyme Assay
[7] = target: PIK3CD (Human) (UniProt O00329); assay: Assessment of PIK3CD Kinase Activity
[8] = target: ROCK2 (human) (UniProt O75116); assay: Enzyme Assay; settings: for activity: concentration not given here
Sequence of ROCK2 (human) (O75116 whole entry, looked up): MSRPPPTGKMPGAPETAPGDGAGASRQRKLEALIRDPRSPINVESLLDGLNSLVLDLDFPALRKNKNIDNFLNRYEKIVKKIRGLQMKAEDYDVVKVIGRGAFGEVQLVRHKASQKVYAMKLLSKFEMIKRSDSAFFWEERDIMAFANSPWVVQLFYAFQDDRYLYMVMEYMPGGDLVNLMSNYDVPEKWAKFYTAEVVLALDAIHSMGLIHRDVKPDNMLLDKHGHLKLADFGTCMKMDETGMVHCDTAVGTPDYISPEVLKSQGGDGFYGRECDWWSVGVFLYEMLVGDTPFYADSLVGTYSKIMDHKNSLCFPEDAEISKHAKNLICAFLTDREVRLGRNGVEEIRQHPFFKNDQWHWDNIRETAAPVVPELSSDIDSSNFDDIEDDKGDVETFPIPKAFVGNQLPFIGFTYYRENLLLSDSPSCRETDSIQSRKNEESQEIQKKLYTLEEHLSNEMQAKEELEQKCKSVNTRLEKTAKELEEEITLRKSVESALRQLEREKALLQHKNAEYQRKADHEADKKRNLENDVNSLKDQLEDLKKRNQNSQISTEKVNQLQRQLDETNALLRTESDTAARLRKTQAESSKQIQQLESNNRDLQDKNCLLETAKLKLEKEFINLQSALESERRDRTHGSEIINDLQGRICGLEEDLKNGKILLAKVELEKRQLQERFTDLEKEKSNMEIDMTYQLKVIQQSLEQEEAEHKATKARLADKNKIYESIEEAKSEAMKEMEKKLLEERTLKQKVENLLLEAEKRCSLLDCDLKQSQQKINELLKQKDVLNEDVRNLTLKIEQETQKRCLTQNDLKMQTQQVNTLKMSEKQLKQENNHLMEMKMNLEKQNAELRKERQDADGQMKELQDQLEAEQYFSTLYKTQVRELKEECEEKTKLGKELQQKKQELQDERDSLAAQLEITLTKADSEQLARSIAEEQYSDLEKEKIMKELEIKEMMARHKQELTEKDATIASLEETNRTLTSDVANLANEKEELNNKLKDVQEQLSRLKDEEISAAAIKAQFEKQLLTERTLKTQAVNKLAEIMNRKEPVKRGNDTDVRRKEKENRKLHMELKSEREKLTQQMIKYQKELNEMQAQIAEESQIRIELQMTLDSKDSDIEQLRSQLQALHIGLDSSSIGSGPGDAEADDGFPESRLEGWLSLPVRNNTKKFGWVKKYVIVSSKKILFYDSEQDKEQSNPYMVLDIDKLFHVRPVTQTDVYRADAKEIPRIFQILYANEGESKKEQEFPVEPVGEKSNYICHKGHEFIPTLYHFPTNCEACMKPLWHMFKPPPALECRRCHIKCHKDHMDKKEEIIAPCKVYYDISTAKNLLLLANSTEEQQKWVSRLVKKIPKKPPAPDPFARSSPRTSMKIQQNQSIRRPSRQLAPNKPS

[9] = target: MAPK14 (UniProt Q16539); assay: p38 Inhibition; settings: for inhibition: concentration not given here
Sequence of MAPK14 (Q16539 whole entry, looked up): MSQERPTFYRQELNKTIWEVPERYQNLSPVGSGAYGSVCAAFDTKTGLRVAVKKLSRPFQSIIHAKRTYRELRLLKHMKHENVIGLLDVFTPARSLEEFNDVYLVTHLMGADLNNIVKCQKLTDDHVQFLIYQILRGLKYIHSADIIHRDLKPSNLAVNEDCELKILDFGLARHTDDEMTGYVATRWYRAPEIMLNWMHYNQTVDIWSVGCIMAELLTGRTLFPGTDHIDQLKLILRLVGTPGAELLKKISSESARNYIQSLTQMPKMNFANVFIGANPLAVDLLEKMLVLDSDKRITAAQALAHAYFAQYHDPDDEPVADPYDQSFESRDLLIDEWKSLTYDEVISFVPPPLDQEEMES

[10] = target: MAPK14 (human) (UniProt Q16539); assay: Enzyme Assay; settings: concentration not given here
Sequence of MAPK14 (human) (Q16539 whole entry, looked up): as above

[11] = target: PIK3CG (human) (UniProt P48736); assay: Enzyme Assay
[12] = target: PIK3CA (human) (UniProt P42336); assay: Inhibition of PIK3CA Kinase Activity

Sequence of PIK3CG (human) (P48736 whole entry, looked up): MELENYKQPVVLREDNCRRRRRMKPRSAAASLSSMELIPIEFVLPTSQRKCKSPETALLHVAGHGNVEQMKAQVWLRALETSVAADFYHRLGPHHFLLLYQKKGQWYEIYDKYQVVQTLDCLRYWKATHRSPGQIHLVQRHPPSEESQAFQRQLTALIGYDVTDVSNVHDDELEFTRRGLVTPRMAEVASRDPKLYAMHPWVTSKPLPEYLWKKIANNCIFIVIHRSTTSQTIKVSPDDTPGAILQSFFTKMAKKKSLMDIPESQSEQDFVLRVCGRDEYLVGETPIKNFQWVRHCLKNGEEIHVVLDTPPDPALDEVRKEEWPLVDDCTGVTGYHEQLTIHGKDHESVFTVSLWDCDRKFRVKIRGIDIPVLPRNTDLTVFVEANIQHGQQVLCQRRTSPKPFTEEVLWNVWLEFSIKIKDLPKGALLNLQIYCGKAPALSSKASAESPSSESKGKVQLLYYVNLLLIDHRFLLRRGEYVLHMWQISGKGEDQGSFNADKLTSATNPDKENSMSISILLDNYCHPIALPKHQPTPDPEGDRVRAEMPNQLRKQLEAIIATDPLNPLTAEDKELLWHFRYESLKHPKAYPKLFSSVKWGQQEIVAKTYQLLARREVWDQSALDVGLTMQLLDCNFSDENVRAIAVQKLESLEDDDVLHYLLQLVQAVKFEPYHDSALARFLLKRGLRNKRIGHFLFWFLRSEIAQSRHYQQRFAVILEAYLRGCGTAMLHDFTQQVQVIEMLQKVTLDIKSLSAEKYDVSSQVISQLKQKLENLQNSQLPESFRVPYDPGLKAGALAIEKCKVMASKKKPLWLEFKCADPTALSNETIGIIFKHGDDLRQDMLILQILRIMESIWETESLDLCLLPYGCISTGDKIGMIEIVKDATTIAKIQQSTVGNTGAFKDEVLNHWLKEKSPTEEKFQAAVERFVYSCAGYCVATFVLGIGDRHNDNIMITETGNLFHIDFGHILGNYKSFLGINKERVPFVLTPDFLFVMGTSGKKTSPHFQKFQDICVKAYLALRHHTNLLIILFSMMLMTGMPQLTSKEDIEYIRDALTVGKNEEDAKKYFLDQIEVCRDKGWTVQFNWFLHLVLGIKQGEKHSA
Sequence of PIK3CA (human) (P42336 whole entry, looked up): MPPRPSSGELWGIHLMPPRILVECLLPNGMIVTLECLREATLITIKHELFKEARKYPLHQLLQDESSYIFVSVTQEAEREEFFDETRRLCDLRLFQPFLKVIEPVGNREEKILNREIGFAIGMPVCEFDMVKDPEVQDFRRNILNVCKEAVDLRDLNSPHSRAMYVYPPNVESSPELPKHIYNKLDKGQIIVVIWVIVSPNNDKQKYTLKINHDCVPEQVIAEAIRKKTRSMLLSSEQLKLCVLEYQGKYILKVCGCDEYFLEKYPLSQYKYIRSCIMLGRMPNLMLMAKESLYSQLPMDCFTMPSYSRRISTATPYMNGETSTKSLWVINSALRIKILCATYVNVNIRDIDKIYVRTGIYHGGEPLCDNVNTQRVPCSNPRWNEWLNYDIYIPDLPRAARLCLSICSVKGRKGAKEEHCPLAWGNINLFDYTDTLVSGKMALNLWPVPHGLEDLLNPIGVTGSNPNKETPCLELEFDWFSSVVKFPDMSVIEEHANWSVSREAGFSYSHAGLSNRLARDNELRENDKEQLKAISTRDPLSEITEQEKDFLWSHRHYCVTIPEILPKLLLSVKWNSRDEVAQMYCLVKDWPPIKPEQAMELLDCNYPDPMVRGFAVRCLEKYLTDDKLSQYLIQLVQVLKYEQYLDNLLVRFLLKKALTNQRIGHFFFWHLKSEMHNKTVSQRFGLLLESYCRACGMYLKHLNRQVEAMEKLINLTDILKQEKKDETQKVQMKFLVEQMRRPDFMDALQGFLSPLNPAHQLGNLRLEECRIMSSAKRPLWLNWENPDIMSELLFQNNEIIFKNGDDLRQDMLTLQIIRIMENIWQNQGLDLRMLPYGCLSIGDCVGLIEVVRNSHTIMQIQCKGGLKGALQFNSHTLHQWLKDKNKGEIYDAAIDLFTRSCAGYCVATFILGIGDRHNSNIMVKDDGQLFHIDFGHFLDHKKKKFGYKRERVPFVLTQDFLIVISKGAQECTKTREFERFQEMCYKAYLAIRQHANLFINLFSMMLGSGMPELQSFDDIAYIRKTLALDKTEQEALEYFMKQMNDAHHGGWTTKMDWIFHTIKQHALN

Ki [2]: < 100 nM
SMILES: CC(=O)Nc1nc(C)c(-c2ccc(S(=O)(=O)N[C@H](CO)c3ccccc3)o2)s1

IC50 [6]: 268 nM | IC50 [3]: 1020 nM
SMILES: O=c1cc(N2CCOCC2)oc2c(-c3ccccc3)cccc12

IC50 [9]: > 30000 nM
SMILES: O=C(CCCNc1ncc(C(F)(F)F)cc1Cl)NNS(=O)(=O)c1ccc(CNC(=O)c2cccc([N+](=O)[O-])c2)s1

IC50 [2]: 180 nM
SMILES: Cc1nc(Nc2cc(C(=O)O)n(C)c2)nc2c1ccc(=O)n2C1CCCC(C)C1 (centres undefined)

IC50 [8]: 25 nM
SMILES: Nc1cccc(CN2CC[C@@H](Nc3cccc4cnccc34)C2)c1

IC50 [8]: 49.7 nM
SMILES: COc1cc(C(=O)NCc2cccc(Cl)c2)ccc1-c1cn[nH]c1

inhibition [9]: 43%
SMILES: O=c1c(-c2ccc(F)cc2)c(-c2ccncc2)[nH]n1-c1ccc(Cl)cc1

IC50 [1]: 60.5 nM | IC50 [2]: 528 nM
SMILES: O=C(Nc1ccc(-c2nc(N3CCOCC3)nc(N3CCOCC3)n2)cc1)Nc1ccc(F)cc1F

IC50 [8]: 2.6 nM
SMILES: CC(C)COC(=O)c1cccc(NC(=O)c2cccc(-c3cc(C(=O)Nc4ccncc4F)ccc3CN)c2)c1

IC50 [2]: 160 nM
SMILES: CCOC(=O)c1cc(Nc2nc(C)c3cc(F)c(=O)n(C4CCCC4)c3n2)cn1CCc1ccccc1

IC50 [8]: < 1 nM
SMILES: COc1cccc(CN(C)C(=O)Nc2ccc(-c3cn[nH]c3)cc2OCCN2CCCC2)c1

IC50 [8]: < 100 nM
SMILES: COCCC(=O)c1ccc(C(=O)Nc2cccc(CN3CCC(Nc4cccc5cnccc45)CC3)c2)cc1

IC50 [1]: 1340 nM | IC50 [2]: 6740 nM
SMILES: Oc1cncc(-c2nc(C3=CCOCC3)c3ncn(C4CCN(Cc5cncc(Br)c5)CC4)c3n2)c1

IC50 [8]: 4.93 nM
SMILES: COc1cc(C(=O)NCc2ccc(Cl)cc2)ccc1-c1cn[nH]c1

Further lines, the compound ahead of its results:

SMILES: CCNC(=O)Oc1nc2cc(-c3nc(N4CCOCC4)c4ccn(CC(F)(F)F)c4n3)ccc2[nH]1
IC50 [1]: 1840 nM | IC50 [2]: 210 nM

SMILES: O=C1NC(=O)/C(=C/c2ccc3c(c2)OCCO3)S1
IC50 [3]: 20000 nM

SMILES: O=C1NCCc2c1[nH]c1ccc(Br)cc21
IC50 [4]: 2000 nM | IC50 ([5]; hela): 3000 nM

SMILES: C[C@H](Nc1ncnc(N)c1C#N)c1nc2ccc(F)cc2c(C#N)c1-c1ccccc1
Ki [7]: 2.76 nM and 1.33 nM

SMILES: O=S(=O)(NCCNC/C=C/c1ccc(Br)cc1)c1cccc2cnccc12
activity [8]: 0%

SMILES: CNS(=O)(=O)c1cncc(-c2ccc3nc(NC(C)=O)nn3c2)c1
IC50 [2]: 7.94 nM

SMILES: CN[C@@H]1C[C@H]2O[C@@](C)([C@@H]1OC)n1c3ccccc3c3c4c(c5c6ccccc6n2c5c31)C(=O)N[C@@H]4O
activity [10]: 92% | activity [8]: 22%

SMILES: CC(Nc1ncnc(N)c1C#N)c1nc2ccc(F)cc2c(C(=O)N(C)C)c1-c1ccccn1 (centres undefined)
Ki [7]: 7.77 nM

SMILES: Cc1c(-c2ccccc2[S+](C)[O-])nc2cc(F)cc(F)c2c1Nc1cc(N2CCOCC2)cnc1N1CCOCC1 (centres undefined)
Ki [7]: 51 nM

SMILES: Oc1cccc(-c2nc(N3CCOCC3)nc3cccnc23)c1
IC50 [6]: 186 nM | IC50 [11]: 1060 nM

SMILES: CC(=O)Nc1nc2ccc(-c3cccc(-c4nc(C)no4)c3)cn2n1
IC50 [2]: > 20000 nM | IC50 [7]: > 100000 nM

SMILES: O=C1NC(=O)C(c2c[nH]c3ccccc23)=C1c1c[nH]c2ccccc12
activity [8]: 100%

SMILES: CC(Nc1ncnc(N)c1C#N)c1nc2ccc(F)cc2c([S+]([O-])CCO)c1-c1ccccc1 (centres undefined)
Ki [7]: 1.8 nM and 2.48 nM

SMILES: COc1ccc2sc(C(=O)Nc3nnn[nH]3)c(Sc3cccc(Cl)c3Cl)c2c1
IC50 [2]: 3450 nM

SMILES: O=C(Nc1ccc(-c2nc(N3CCOCC3)nc(N3CCOCC3)n2)cc1)NC1CCNCC1
IC50 [1]: 1520 nM | IC50 [2]: 7470 nM

SMILES: Nc1ncnc2c1c(I)nn2Cc1cc2c(Cl)cccc2nc1-c1ccccc1Cl
IC50 [3]: 35 nM

SMILES: NCCSc1cc(-c2ccc[nH]2)c2c3c(ccc(F)c13)NC2=O
IC50 ([5]; rko): 100 nM

SMILES: O=C1NC(=S)S/C1=C\c1ccc2c(c1)OCO2
IC50 [3]: 20000 nM

SMILES: Cc1c(N2CCN(C(=O)N(C)C)CC2)nc2cc(F)cc(F)c2c1Nc1cncc(N2CCOCC2)c1C(=O)N(C)C
Ki [7]: 81.6 nM

SMILES: Fc1ccc(Cl)c(-c2nc3c(Cl)cccc3cc2CNc2ncnc3[nH]cnc23)c1
IC50 [3]: 71 nM

SMILES: C[C@H](Nc1ncnc(N)c1C(N)=O)c1nc2ccc(F)cc2c(C(=O)O)c1-c1ccccc1
Ki [7]: 7.16 nM

SMILES: O=C1NC(=O)/C(=C/c2ccc3cc(F)oc3c2)S1
IC50 [3]: 20000 nM

SMILES: Cc1[nH]c(=O)c2c(ccc3nc(Nc4c(Cl)cccc4Cl)[nH]c32)c1C
inhibition [9]: 0%

SMILES: Cc1ccccc1-c1nc2c(C)cccc2cc1COc1ncnc2[nH]cnc12
IC50 [3]: 27 nM

SMILES: O=C(Nc1ccc(-c2nc(N3CCOCC3)nc(N3CCOCC3)n2)cc1)Nc1cccs1
IC50 [1]: 2 nM | IC50 [2]: 23 nM

SMILES: CCc1cccn2c(-c3cccc(F)c3)c(C(C)Nc3ncnc4[nH]cnc34)nc12 (centres undefined)
IC50 [7]: 500 to 990 nM

SMILES: Cc1c(-c2ccccc2[S+](C)[O-])nc2cc(F)cc(F)c2c1Nc1cncc(N2CCOCC2)c1 (centres undefined)
Ki [7]: 3.89 nM

SMILES: CC(Nc1ncnc2[nH]cnc12)c1cc(Cl)c2cncn2c1-c1cccc(F)c1 (centres undefined)
IC50 [7]: ≤ 50 nM

SMILES: N=C1NC(=O)/C(=C/c2ccc3c(c2)OCO3)S1
IC50 [12]: 20000 nM | IC50 [3]: 20000 nM

Source: the Kinase Knowledgebase extract (Sharma et al. 2016)
